“And” between values parts separate entries of the source, which are not always exact repeats. Equal values may be shown once.
Key:
Details in all cases: incubation time: 72 h
HDQ-P1 = test: normalised viability (% of control), CellTiter-Blue; higher = more viable cells (about 100 = DMSO control)
Description: (§1)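 DSRT, CellTiter-Blue viability, 72 h incubation. Signal is normalised to DMSO and benzethonium chloride controls. Value is the normalised response at dose 3.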

MDA-MB-453 = test: as above
Description: as §1

CAL-51 = test: as above
Description: as §1

MDA-MB-231 = test: as above
Description: as §1

BT-549 = test: as above
Description: as §1

MFM-223 [1] = test: as above
Description: as §1

CAL-148 = test: as above
Description: as §1

HCC1143 [2] = test: as above
Description: as §1

HCC1599 = test: as above
Description: as §1

BT-474 = test: as above
Description: as §1

MDA-MB-436 = test: as above
Description: as §1

Hs578T = test: as above
Description: as §1

CAL-85-1 = test: as above
Description: as §1

CAL-120 [3] = test: as above
Description: as §1

DU-4475 [4] = test: as above
Description: as §1

MDA-MB-468 = test: as above
Description: as §1

SK-BR-3 = test: as above
Description: as §1

HCC1937 [5] = test: as above
Description: as §1

MFM-223 [6] = test: drug sensitivity score (DSS), CellTiter-Blue viability (DSS (AUC-based score)); higher = stronger viability inhibition; extreme values may be limits of the assay
Description: (§2)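 DSRT with the CellTiter-Blue (resazurin reduction) viability readout, fluorescence 560/590 nm, 72 h incubation. Plates were normalised to DMSO and benzethonium chloride controls. DSS is computed from the area under the fitted dose-response curve (5 or 9 concentrations).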

HCC1143 [7] = test: as above
Description: as §2

CAL-120 [8] = test: as above
Description: as §2

DU-4475 [9] = test: as above
Description: as §2

HCC1937 [10] = test: as above
Description: as §2

| SMILES | normalised viability (HDQ-P1; 10 nM) | normalised viability (MDA-MB-453; 10 nM) | normalised viability (CAL-51; 10 nM) | normalised viability (MDA-MB-231; 100 nM) | normalised viability (BT-549; 100 nM) | normalised viability (MFM-223 [1]; 100 nM) | normalised viability (CAL-148; 10 nM) | normalised viability (HCC1599; 100 nM) | normalised viability (BT-474; 100 nM) | normalised viability (MDA-MB-436; 100 nM) | normalised viability (Hs578T; 100 nM) | normalised viability (CAL-85-1; 10 nM) | normalised viability (CAL-120 [3]; 100 nM) | normalised viability (DU-4475 [4]; 10 nM) | normalised viability (MDA-MB-468; 100 nM) | drug sensitivity score (MFM-223 [6]) | drug sensitivity score (HCC1143 [7]) | drug sensitivity score (CAL-120 [8]) | drug sensitivity score (DU-4475 [9]) | drug sensitivity score (HCC1937 [10]) | also measured |
| --- | --- | --- | --- | --- | --- | --- | --- | --- | --- | --- | --- | --- | --- | --- | --- | --- | --- | --- | --- | --- | --- |
| Cc1c(N)nc([C@H](CC(N)=O)NC[C@H](N)C(N)=O)nc1C(=O)N[C@H](C(=O)N[C@H](C)[C@@H](O)[C@H](C)C(=O)N[C@H](C(=O)NCCc1nc(-c2nc(C(=O)NCCC[S+](C)C)cs2)cs1)[C@@H](C)O)[C@@H](OC1OC(CO)C(O)C(O)C1OC1OC(CO)C(O)C(OC(N)=O)C1O)c1cnc[nH]1 (stereo partly drawn) [Bleomycin] | 82.3% | 102% | 98.2% | 81.8% | 61.4% | 99.5% | 77.6% | 134% | 96% | 88.2% | 68.7% | 107% | 86.3% | 120% | 86.5% | 0 | 9.95 | 3.15 | 0 | 9.75 | normalised viability (HCC1143 [2]; 100 nM): 74.7%; normalised viability (SK-BR-3; 100 nM): 90.8%; normalised viability (HCC1937 [5]; 100 nM): 91.4% |
| Cc1cc2c(F)c(Oc3ncnn4cc(OC[C@@H](C)O)c(C)c34)ccc2[nH]1 [Brivanib] | – | – | – | – | – | – | – | – | – | – | – | – | – | – | – | 0 | 0 | 0 | 0 | 0 | normalised viability (HDQ-P1; 1 nM): 94.8%; normalised viability (MDA-MB-453; 1 nM): 102%; normalised viability (CAL-51; 1 nM): 91.8%; normalised viability (MDA-MB-231; 10 nM): 98.1%; normalised viability (BT-549; 10 nM): 93.9%; normalised viability (MFM-223 [1]; 10 nM): 90.1%; normalised viability (CAL-148; 1 nM): 82.3%; normalised viability (HCC1143 [2]; 10 nM): 78.8%; normalised viability (HCC1599; 10 nM): 96.2%; normalised viability (BT-474; 10 nM): 102%; normalised viability (MDA-MB-436; 10 nM): 104%; normalised viability (Hs578T; 10 nM): 88.9%; normalised viability (CAL-85-1; 1 nM): 105%; normalised viability (CAL-120 [3]; 10 nM): 88.2%; normalised viability (DU-4475 [4]; 1 nM): 96.3%; normalised viability (MDA-MB-468; 10 nM): 103%; normalised viability (SK-BR-3; 10 nM): 75.5%; normalised viability (HCC1937 [5]; 10 nM): 97.2% |
| CCCCCOC(=O)Nc1nc(=O)n([C@@H]2O[C@H](C)[C@@H](O)[C@H]2O)cc1F [Capecitabine] | 106% and 91.4% | 94.8% and 93.2% | 110% and 102% | 98.2% and 87% | 103% and 97.5% | 87.7% and 104% | 86.9% and 94.2% | 123% and 106% | 114% and 99.9% | 95.8% and 95.6% | 83.7% and 96.8% | 96.7% and 98.3% | 85.3% and 95.2% | 97.4% and 107% | 101% and 111% | 0 | 0 | 0 | 0 | 0 | normalised viability (SK-BR-3; 100 nM): 77.5% and 96.3%; normalised viability (HCC1937 [5]; 100 nM): 86.1% and 80.9% |
| CC(C)C[C@H](NC(=O)[C@H](CCc1ccccc1)NC(=O)CN1CCOCC1)C(=O)N[C@@H](Cc1ccccc1)C(=O)N[C@@H](CC(C)C)C(=O)[C@@]1(C)CO1 [Carfilzomib] | – | – | – | – | – | – | – | – | – | – | – | – | – | – | – | 26.4 | 20.4 | 23.9 | 22.8 | 27 | normalised viability (HDQ-P1; 1 nM): 109%; normalised viability (MDA-MB-453; 1 nM): 96.8%; normalised viability (CAL-51; 1 nM): 106%; normalised viability (MDA-MB-231; 10 nM): 28.1%; normalised viability (BT-549; 10 nM): 12.5%; normalised viability (MFM-223 [1]; 10 nM): 14.8%; normalised viability (CAL-148; 1 nM): 98.5%; normalised viability (HCC1143 [2]; 10 nM): 53.4%; normalised viability (HCC1599; 10 nM): 109%; normalised viability (BT-474; 10 nM): 87.2%; normalised viability (MDA-MB-436; 10 nM): 73.5%; normalised viability (Hs578T; 10 nM): 13.8%; normalised viability (CAL-85-1; 1 nM): 104%; normalised viability (CAL-120 [3]; 10 nM): 46.2%; normalised viability (DU-4475 [4]; 1 nM): 93.5%; normalised viability (MDA-MB-468; 10 nM): 19.5%; normalised viability (SK-BR-3; 10 nM): 33.2%; normalised viability (HCC1937 [5]; 10 nM): 22.8% |
| Nc1nc(Cl)nc2c1ncn2[C@@H]1O[C@H](CO)[C@@H](O)[C@@H]1F [Clofarabine] | 110% | 103% | 111% | 64.2% | 85.6% | 89.1% | 86.8% | 93.7% | 99.2% | 77% | 84.6% | 96.8% | 78.8% | 105% | 91.3% | 0 | 9.25 | 11.6 | 13.3 | 15.5 | normalised viability (HCC1143 [2]; 100 nM): 79.7%; normalised viability (SK-BR-3; 100 nM): 65%; normalised viability (HCC1937 [5]; 100 nM): 80% |
| CCN(CC)CCOc1ccc(C(=C(Cl)c2ccccc2)c2ccccc2)cc1 [Clomifene] | 115% | 103% | 97.5% | 101% | 118% | 103% | 94% | 100% | 116% | 114% | 95.7% | 96.2% | 94.8% | 103% | 97.5% | 2.02 | 0 | 3.83 | 1.29 | 1.23 | normalised viability (HCC1143 [2]; 100 nM): 88.5%; normalised viability (SK-BR-3; 100 nM): 93.4%; normalised viability (HCC1937 [5]; 100 nM): 100% |
| C[C@@H]1C[C@H]2[C@@H]3CCC4=CC(=O)C=C[C@]4(C)[C@@]3(F)[C@@H](O)C[C@]2(C)[C@@]1(O)C(=O)CO [Dexamethasone] | 113% | 93.3% | 94.9% | 121% | 88.6% | 93.4% | 97.7% | 117% | 115% | 94.9% | 97.2% | 110% | 68.5% | 97.2% | 119% | 0 | 0 | 0 | 0 | 0 | normalised viability (HCC1143 [2]; 100 nM): 83.4%; normalised viability (SK-BR-3; 100 nM): 70.3%; normalised viability (HCC1937 [5]; 100 nM): 94% |
| CC(C)C(=O)Nc1ccc([N+](=O)[O-])c(C(F)(F)F)c1 [Flutamide] | 113% | 98.8% | 112% | 129% | 85.8% | 90% | 99.3% | 86.8% | 115% | 105% | 92% | 100% | 101% | 92.6% | 96.9% | 0 | 0 | 0 | 0 | 0 | normalised viability (HCC1143 [2]; 100 nM): 85.3%; normalised viability (SK-BR-3; 100 nM): 93.3%; normalised viability (HCC1937 [5]; 100 nM): 108% |

Reference: the supplement of paper PMC4862054
